# Measured values reported in patent US20190375778A1, “ADENOSINE DERIVATIVES FOR USE IN THE TREATMENT OF CANCER” (NuCana plc, priority 2016, published 2019).
# Legend:
# [1] = tested on: Murine leukemia L1210; experiment: Cell proliferation (Coulter count) assay, L1210; type: cell-based; conditions: Mus musculus, 48 h, read-out: absolute IC50, L1210
# Excerpt: (§1) Lovo: cell line derived from a metastatic site in a patient with colon cancer MCF7: human oestrogen sensitive mammary epithelial cell line PC3: human prostate cancer cell line A549: cancerous lung tissue derived cells L1210: lymphoblast cell line derived from a mouse with lymphocytic leukaemia FM3A: mammary carcinoma murine cells CEM: human T-lymphoblasts, derived from the blood of a patient with acute lymphoblastic leukaemia HeLa: epithelial cells from a patient with cervical adenocarcinoma
# (§2) Murine leukemia L1210, human T-lymphocyte CEM, and human cervix carcinoma HeLa cells were obtained from the American Type Culture Collection (ATCC) (Rockville, Md.). All cells were maintained in Dulbecco's modified Eagle's medium (DMEM) (Invitrogen, Carlsbad, Calif.) with 10% fetal bovine serum (FBS) (Biochrom AG, Berlin, Germany), 10 mM Hepes, and 1 mM sodiumpyruvate (Invitrogen). Cells were grown at 37° C. in a humidified incubator with a gas phase of 5% CO2. Monolayer cells (HeLa and […]) were seeded in 96-well microtiter plates (Nunc, Roskilde, Denmark) at 10 000 cells/well. After 24 h, an equal volume of fresh medium containing the test compounds was added. On day 5, cells were trypsinized and counted in a Coulter counter (Analis, Suarlee, Belgium). Suspension cells (L1210, CEM) were seeded in 96-well microtiter plates (Nunc) at 60 000 cells/well in the presence of a given amount of the test compounds. The cells were allowed to proliferate for 48 h (L1210) or 72 h (CEM) and were then counted in a Coulter counter. The 50% inhibitory concentration (IC50) was defined as the compound concentration required to reduce cell proliferation by 50%. The cytostatic activity of the compounds was determined after 3 days, as outlined above.
# [2] = tested on: human T-lymphocyte CEM; experiment: Cell proliferation (Coulter count) assay, CEM; type: cell-based; conditions: 72 h, read-out: absolute IC50, CEM
# Excerpt: as §1, §2
# [3] = tested on: human cervix carcinoma HeLa cells; experiment: Cell proliferation (Coulter count) assay, HeLa; type: cell-based; conditions: 120 h, cell count on day 5, read-out: absolute IC50, HeLa
# Excerpt: as §1, §2
# [4] = tested on: KG1a leukaemic stem cell compartment (Lin−/CD34+/CD38−/CD123+); experiment: Leukaemic stem cell compartment in KG1a; type: cell-based; conditions: for Change relative to control (%): % LSC compartment versus the series' control; for KG-1a (CD34+/CD38−/CD123+) % compartment: LSC as percentage of viable cells left, 72 hrs
# Experimental: A further comparative analysis of the toxicity of compounds in the KG1a cell line over an extended dose range was carried out, and the relative effect assessed of the compounds on the leukaemic stem cell compartment within the KG1a cell line, across the entire dose range. Thus, experimental tests were performed on certain compounds of the present invention to assess their ability to target cancer stem cells in a leukaemic cell line. The acute myeloid leukaemia (AML) cell line, KG1a, was employed to assess the relative effect of compounds on the stem cell compartment. The KG1a cell line was selected because it manifests a minor stem cell-like compartment with a distinct immunophenotype (Lin^−/CD34^+/CD38^−/CD123^+).
# Cells of the KG1a cell line were maintained in RPMI medium (Invitrogen, Paisley, UK) supplemented with 100 units/ml penicillin, 100 μg/ml streptomycin and 20% foetal calf serum. Cells were subsequently aliquoted (10^5 cells/100 μl) into 96-well plates and were incubated at 37° C. in a humidified 5% carbon dioxide atmosphere for 72 hrs in the presence of nucleoside analogues and their respective nucleotide analogues (known as ProTides) at concentrations that were experimentally determined for each series of compounds. In addition, control cultures were carried out to which no drug was added. Cells were subsequently harvested by centrifugation and were analyzed by flow cytometry using the Annexin V assay.
# KG1a cells were cultured for 72 hrs in the presence of a wide range of concentrations of each compound assayed. Cells were then harvested and labelled with a cocktail of anti-lineage antibodies (PE-cy7), anti-CD34 (FITC), anti-CD38 (PE) and anti-CD123 (PERCP cy5). The sub-population expressing a leukaemic stem cell (LSC) phenotype were subsequently identified and were expressed as a percentage of all viable cells left in the culture. The percentages of stem cells remaining were then plotted on a dose-response graph and the effects of the compounds were compared with 8-chloroadenosine.
# The data obtained in these experiments were evaluated using one way ANOVA. All data was confirmed as Gaussian or a Gaussian approximation using the omnibus K2 test. LD50 values were calculated from the non-linear regression and line of best-fit analysis of the sigmoidal dose-response curves. All statistical analyses were performed using Graphpad Prism 6.0 software (Graphpad Software Inc., San Diego, Calif.).
# [5] = tested on: CCRFCEM; experiment: CellTiterGlo viability assay, CCRFCEM; type: cell-based; conditions: Homo sapiens, CCRF-CEM, 72 h, read-out: IC50 CCRFCEM
# Experimental: (§3) In vitro viability assay were performed to assess the effects of compounds on cell viability in selected cell lines over ˜72 hrs using the CellTiterGlo (CTG, Promega-G7573) assay. The tests were performed in duplicates with treatment of compounds at 9 points, 3.16 folds titration in 96 well plates over ˜72 hrs. The compound starting concentrations were 198 μM. Cell viability assay using CellTiterGlo in 96-well plate were performed. Compound treatment 72 hrs, standard growth conditions, duplicates. Compounds were dissolved to 40 mM with thawed […]. Compounds were serially diluted at 3.16 fold in thawed DMSO, and warmed to 37° C. before being dissolved in media (2 μl+200 μl). After compounds were dissolved in media, media containing compounds were warmed to 37° C. in incubator and then compounds in media were added to cell plates (50 μl+50 μl) in duplicates. The compounds' final concentrations were from […] to 19.9 nM. All compound solubilities were checked and recorded again, then the plates were transferred to CO2 tissue culture incubator immediately and incubated for 3 days. DMSO final concentration is 0.5%.
# [6] = tested on: RPMI-8226; experiment: CellTiterGlo viability assay, RPMI-8226; type: cell-based, Human; conditions: Homo sapiens, RPMI-8226, 72 h, read-out: IC50 RPMI-8226
# Experimental: as §3
# [7] = tested on: KG-1; experiment: CellTiterGlo viability assay, KG-1; type: cell-based; conditions: Homo sapiens, KG-1, 72 h, read-out: IC50 KG-1
# Experimental: as §3
# [8] = tested on: HL-60; experiment: CellTiterGlo viability assay, HL-60; type: cell-based; conditions: Homo sapiens, HL-60, 72 h, read-out: IC50 HL-60
# Experimental: as §3
# [9] = tested on: HEL92.1.7; experiment: CellTiterGlo viability assay, HEL92.1.7; type: cell-based; conditions: Homo sapiens, HEL 92.1.7, 72 h, read-out: IC50 HEL92.1.7
# Experimental: as §3
# [10] = tested on: MV4-11; experiment: CellTiterGlo viability assay, MV4-11; type: cell-based; conditions: Homo sapiens, MV4-11, 72 h, read-out: IC50 MV4-11
# Experimental: as §3
# [11] = tested on: K562; experiment: CellTiterGlo viability assay, K562; type: cell-based; conditions: Homo sapiens, K562, 72 h, read-out: IC50 K562
# Experimental: as §3
# [12] = tested on: NCI-H929; experiment: CellTiterGlo viability assay, NCI-H929; type: cell-based; conditions: Homo sapiens, NCI-H929, 72 h, read-out: IC50 NCI-H929
# Experimental: as §3
# [13] = tested on: RL; experiment: CellTiterGlo viability assay, RL; type: cell-based; conditions: Homo sapiens, RL, 72 h, read-out: IC50 RL
# Experimental: as §3
Structure (SMILES),IC50 [1],IC50 [2],IC50 [3],other results
"Nc1ncnc2c1nc(Cl)n2[C@@H]1O[C@H](COP(=O)(NCC(=O)OC2CCCCC2)Oc2cccc3ccccc23)C(O)C1O (stereo partly shown) [M, 5′-([(Cyclohexyloxy-glycin-N-yl)-naphth-1-yl]-phosphatyl) 8-chloroadenosine]",15 to 100 µM,15 to 100 µM,15 to 100 µM,–
"CCOC(=O)[C@H](Cc1ccccc1)NP(=O)(OC[C@H]1O[C@@H](n2c(Cl)nc3c(N)ncnc32)C(O)C1O)Oc1cccc2ccccc12 (stereo partly drawn) [S, 5′-([(Ethyloxy-L-phenylalanin-N-yl)-naphth-1-yl]-phosphatyl) 8-chloroadenosine]",15 to 100 µM,5 to 15 µM,0.1 to 5 µM,–
"CCOC(=O)[C@H](CC(C)C)NP(=O)(OC[C@H]1O[C@@H](n2c(Cl)nc3c(N)ncnc32)C(O)C1O)Oc1cccc2ccccc12 (stereo partly drawn) [K, 5′-([(ethyloxy-L-leucin-N-yl)-naphth-1-yl]-phosphatyl) 8-chloroadenosine]",15 to 100 µM,5 to 15 µM,0.1 to 5 µM,–
Nc1nc(Cl)nc2c1ncn2[C@@H]1O[C@H](CO)[C@@H](O)[C@@H]1F [Clofarabine],–,–,–,Change relative to control (%) [4]: −0.2%; KG-1a (CD34+/CD38−/CD123+) % compartment [4]: 3.3%
"CC(C)C[C@H](NP(=O)(OC[C@H]1O[C@@H](n2c(Cl)nc3c(N)ncnc32)C(O)C1O)Oc1cccc2ccccc12)C(=O)OC1CCCCC1 (stereo partly drawn) [J, 5′-([(Cyclohexyloxy-L-leucin-N-yl)-naphth-1-yl]-phosphatyl) 8-chloroadenosine]",5 to 15 µM,5 to 15 µM,5 to 15 µM,–
"C[C@H](NP(=O)(N[C@@H](C)C(=O)OCc1ccccc1)OC[C@H]1O[C@@H](n2c(Cl)nc3c(N)ncnc32)C(O)C1O)C(=O)OCc1ccccc1 (stereo partly drawn) [AB, 8-Chloroadenosine 5′-O-bis(benzyloxy-L-alanin-N-yl) phosphate]",5 to 15 µM,0.1 to 5 µM,0.1 to 5 µM,–
"CCOC(=O)[C@H](C)NP(=O)(OC[C@H]1O[C@@H](n2c(Cl)nc3c(N)ncnc32)C(O)C1O)Oc1cccc2ccccc12 (stereo partly drawn) [F, 5′-([(Ethyloxy-L-alanin-N-yl)-naphth-1-yl]-phosphatyl) 8-chloroadenosine]",15 to 100 µM,5 to 15 µM,0.1 to 5 µM,–
"Nc1ncnc2c1nc(Cl)n2[C@@H]1O[C@H](COP(=O)(NCC(=O)OCc2ccccc2)Oc2cccc3ccccc23)C(O)C1O (stereo partly shown) [Compound L, 5′-([(benzylo-yl-glycin-N-yl)-naphth-1-yl]-phosphatyl) 8-chloroadenosine]",5 to 15 µM,0.1 to 5 µM,0.1 to 5 µM,IC50 [5]: 5 to 15 µM; IC50 [6]: 0.1 to 5 µM; IC50 [7]: 5 to 15 µM; IC50 [8]: 5 to 15 µM; IC50 [9]: 0.1 to 5 µM; IC50 [10]: 0.1 to 5 µM; IC50 [11]: 5 to 15 µM; IC50 [12]: 15 to 100 µM; IC50 [13]: 5 to 15 µM
"CCOC(=O)CNP(=O)(OC[C@H]1O[C@@H](n2c(Cl)nc3c(N)ncnc32)C(O)C1O)Oc1cccc2ccccc12 (stereo partly shown) [N, 5′-([(ethyloxy-glycin-N-yl)-naphth-1-yl]-phosphatyl) 8-chloroadenosine]",15 to 100 µM,15 to 100 µM,0.1 to 5 µM,–
Nc1nc(Cl)nc2c1ncn2[C@H]1C[C@H](O)[C@@H](CO)O1 [Cladribine],–,–,–,Change relative to control (%) [4]: +2.0%; KG-1a (CD34+/CD38−/CD123+) % compartment [4]: 6.0%
"CCCCCOC(=O)[C@H](Cc1ccccc1)NP(=O)(OC[C@H]1O[C@@H](n2c(Cl)nc3c(N)ncnc32)C(O)C1O)Oc1cccc2ccccc12 (stereo partly drawn) [Q, 5′-([(Pent-1-yloxy-L-phenylalanin-N-yl)-naphth-1-yl]-phosphatyl) 8-chloroadenosine]",5 to 15 µM,0.1 to 5 µM,0.1 to 5 µM,IC50 [5]: 5 to 15 µM; IC50 [6]: 0.1 to 5 µM; IC50 [7]: 5 to 15 µM; IC50 [8]: 5 to 15 µM; IC50 [9]: 0.1 to 5 µM; IC50 [10]: 0.1 to 5 µM; IC50 [11]: 0.1 to 5 µM; IC50 [12]: 5 to 15 µM; IC50 [13]: 5 to 15 µM
"Nc1ncnc2c1nc(Cl)n2[C@@H]1O[C@H](COP(=O)(N[C@@H](Cc2ccccc2)C(=O)OC2CCCCC2)Oc2cccc3ccccc23)C(O)C1O (stereo partly drawn) [R, 5′-([(Cyclohexyloxy-L-phenylalanin-N-yl)-naphth-1-yl]-phosphatyl) 8-chloroadenosine]",5 to 15 µM,5 to 15 µM,0.1 to 5 µM,–
"Nc1ncnc2c1nc(Cl)n2[C@@H]1O[C@H](COP(=O)(N[C@@H](Cc2ccccc2)C(=O)OCc2ccccc2)Oc2cccc3ccccc23)C(O)C1O (stereo partly drawn) [P, 5′-([(Benzyloxy-L-phenylalanin-N-yl)-naphth-1-yl]-phosphatyl) 8-chloroadenosine]",5 to 15 µM,0.1 to 5 µM,0.1 to 5 µM,IC50 [5]: 5 to 15 µM; IC50 [6]: 0.1 to 5 µM; IC50 [7]: 5 to 15 µM; IC50 [8]: 0.1 to 5 µM; IC50 [9]: 0.1 to 5 µM; IC50 [10]: 0.1 to 5 µM; IC50 [11]: 0.1 to 5 µM; IC50 [12]: 0.1 to 5 µM; IC50 [13]: 5 to 15 µM
"CCCCCOC(=O)[C@H](CC(C)C)NP(=O)(OC[C@H]1O[C@@H](n2c(Cl)nc3c(N)ncnc32)C(O)C1O)Oc1cccc2ccccc12 (stereo partly drawn) [I, 5′-([(Pent-1-yloxy-L-leucin-N-yl)-naphth-1-yl]-phosphatyl) 8-chloroadenosine]",5 to 15 µM,5 to 15 µM,0.1 to 5 µM,–
"C[C@H](NP(=O)(OC[C@H]1O[C@@H](n2c(Cl)nc3c(N)ncnc32)C(O)C1O)Oc1cccc2ccccc12)C(=O)OC1CCCCC1 (stereo partly drawn) [G, 5′-([(Cyclohexyloxy-L-alanin-N-yl)-naphth-1-yl]-phosphatyl) 8-chloroadenosine]",15 to 100 µM,5 to 15 µM,0.1 to 5 µM,–
